Test results reported in patent US20100160356A1, “NOVEL CYCLOBUTYL COMPOUNDS AS KINASE INHIBITORS” (priority 2006, published 2010).
pIC50: −log10 of the molar value. Converted amounts (≈) assume the structure as drawn.

Key:
[1] = Solubility in phosphate buffer by the shake flask method; type: physicochemical; details: 37 °C, pH 7, aqueous buffer, thermodynamic from solid, pH 7.0, 37° C., 24 h shake flask
Experimental: The procedure described in Glomme et al. (J. Pharm. Sci. 94(1): 1-16, 2005) is followed. The concentration determination is carried out by HPLC with UV detection against a standard solution.
Buffer: 3.954 g of sodium dihydrogenphosphate monohydrate 6.024 g of sodium chloride +950 ml of ultrapure water. Setting of pH 7.0 using 0.1 M NaOH or 0.1 M HCl.
The samples were shaken at 37° C. and 450 rpm for 24 h. After about 7 h, the pH of the samples was checked and adjusted if necessary. It was checked whether the sample was still present in excess. Just before the end of the 24 h shaking time, the samples were again checked for pH and a precipitate.
• Ultrapure water plant: MilliQ gradient, Millipore, unit: F3PN37462D • Shaker: TiMix control, Bühler • Incubation hood: TH 15, Bühler • pH meter: 766 Calimatic Knick instrument: pH 1 • pH electrode: InLab 423 Mettler • HPLC: column: LiChroCart 125-4 LiChrospher 100 RP-18 • flow rate: 1.000 ml/min • eluents: • eluent A: 2 ml of diethylamine, for synthesis+1000 ml of methanol, LiChrosolv • eluent B: 5 g of ammonium acetate, for analysis+5 ml of methanol, LiChrosolv+995 ml of ultrapure water

[2] = target: T1, FAK (focal adhesion kinase) (Homo sapiens, UniProt Q05397); assay: Inhibition of FAK (ELISA assay), FAK phosphorylation in cells; type: cell-based; details: human cells with FAK amplification
T1 construct: endogenous in cells; host or cells: Calu-6 or HT-29
T1 sequence (Q05397 whole entry): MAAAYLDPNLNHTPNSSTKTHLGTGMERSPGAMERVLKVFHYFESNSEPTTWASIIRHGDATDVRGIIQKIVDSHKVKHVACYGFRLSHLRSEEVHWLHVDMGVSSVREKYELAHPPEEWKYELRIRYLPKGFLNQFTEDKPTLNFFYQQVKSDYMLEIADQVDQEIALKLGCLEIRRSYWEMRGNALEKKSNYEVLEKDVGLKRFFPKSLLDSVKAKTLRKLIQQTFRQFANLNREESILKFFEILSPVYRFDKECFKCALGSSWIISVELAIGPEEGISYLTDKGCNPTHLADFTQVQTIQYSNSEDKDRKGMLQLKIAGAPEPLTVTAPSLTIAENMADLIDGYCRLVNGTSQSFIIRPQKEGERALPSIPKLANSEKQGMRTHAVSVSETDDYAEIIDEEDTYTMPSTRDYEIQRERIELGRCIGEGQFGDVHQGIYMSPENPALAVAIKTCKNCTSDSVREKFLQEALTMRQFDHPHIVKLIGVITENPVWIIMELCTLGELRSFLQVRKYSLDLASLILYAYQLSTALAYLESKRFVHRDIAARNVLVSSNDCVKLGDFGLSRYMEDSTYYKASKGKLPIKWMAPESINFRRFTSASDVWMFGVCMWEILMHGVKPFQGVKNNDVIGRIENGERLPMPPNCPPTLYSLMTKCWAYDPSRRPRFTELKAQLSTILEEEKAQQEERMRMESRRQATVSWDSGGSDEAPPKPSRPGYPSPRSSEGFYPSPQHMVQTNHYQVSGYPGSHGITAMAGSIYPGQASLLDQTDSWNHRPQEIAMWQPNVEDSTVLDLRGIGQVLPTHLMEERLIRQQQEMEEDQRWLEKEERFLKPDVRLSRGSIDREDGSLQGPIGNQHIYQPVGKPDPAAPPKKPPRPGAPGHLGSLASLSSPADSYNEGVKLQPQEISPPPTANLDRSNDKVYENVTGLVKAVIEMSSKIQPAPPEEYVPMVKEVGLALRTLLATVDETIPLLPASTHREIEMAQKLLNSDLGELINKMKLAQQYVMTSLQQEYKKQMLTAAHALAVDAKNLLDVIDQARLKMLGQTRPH
Experimental: Activated FAK promotes the invasive growth of tumour cells and inhibits anoikis.
The amount of phosphorylated FAK is determined by a specific capture ELISA or an analogous LUMINEX assay. FAK from cell lysates is bound to a 96-well ELISA plate or LUMINEX beads by means of a specific antibody (“capturing”), and the tyrosine phosphorylation is detected using a biotin-labelled anti-phosphotyrosine antibody and a streptavidin-peroxidase conjugate by a chemiluminescence method or by means of a fluorescence-labelled anti-phosphotyrosine antibody.
For determination of the activity of kinase inhibitors, cells are pretreated with increasing concentrations of these compounds for 45 min, and the FAK phosphorylation is then determined. As internal control, a concentration series of a reference inhibitor is measured.

TIE2 = TIE2 (Homo sapiens, UniProt Q02763); assay: Inhibition of TIE2 (flashplate assay); type: biochemical; details: flashplate method
Chain of TIE2 (Q02763 23-1124, species assumed): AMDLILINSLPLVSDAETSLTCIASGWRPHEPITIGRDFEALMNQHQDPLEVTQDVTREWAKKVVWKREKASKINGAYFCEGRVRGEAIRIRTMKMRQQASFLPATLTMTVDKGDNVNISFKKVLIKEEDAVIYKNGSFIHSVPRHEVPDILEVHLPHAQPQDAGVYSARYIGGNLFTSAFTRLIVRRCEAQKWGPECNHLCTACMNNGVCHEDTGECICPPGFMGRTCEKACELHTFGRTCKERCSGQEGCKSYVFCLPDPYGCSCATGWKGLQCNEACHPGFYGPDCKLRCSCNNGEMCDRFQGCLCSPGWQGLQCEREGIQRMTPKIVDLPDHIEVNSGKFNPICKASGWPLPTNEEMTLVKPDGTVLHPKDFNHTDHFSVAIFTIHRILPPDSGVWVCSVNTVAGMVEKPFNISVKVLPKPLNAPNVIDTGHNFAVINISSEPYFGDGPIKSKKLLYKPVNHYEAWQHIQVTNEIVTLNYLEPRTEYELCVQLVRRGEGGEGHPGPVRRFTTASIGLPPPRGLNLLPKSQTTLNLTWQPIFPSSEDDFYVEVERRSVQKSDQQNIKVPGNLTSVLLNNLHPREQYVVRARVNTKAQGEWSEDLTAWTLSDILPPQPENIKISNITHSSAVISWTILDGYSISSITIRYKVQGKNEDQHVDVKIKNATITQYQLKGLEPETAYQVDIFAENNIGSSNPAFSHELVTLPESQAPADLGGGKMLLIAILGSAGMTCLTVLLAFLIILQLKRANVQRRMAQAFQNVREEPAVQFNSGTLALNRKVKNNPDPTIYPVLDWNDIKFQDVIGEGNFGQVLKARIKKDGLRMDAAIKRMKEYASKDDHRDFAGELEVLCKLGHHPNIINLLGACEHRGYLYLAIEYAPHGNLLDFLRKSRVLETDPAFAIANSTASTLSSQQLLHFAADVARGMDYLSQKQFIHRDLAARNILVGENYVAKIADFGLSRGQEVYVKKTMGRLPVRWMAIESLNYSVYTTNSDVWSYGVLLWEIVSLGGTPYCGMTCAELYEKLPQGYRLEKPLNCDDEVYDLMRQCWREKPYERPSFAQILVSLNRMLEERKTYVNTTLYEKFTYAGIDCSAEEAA
Experimental: B4: inhibition of T1E2 (Flashplate Assay)
(§1) The test plates used are 384-well flashplate microtitre plates from Perkin Elmer (USA). The components of the kinase reaction are pipetted into the assay plate. The TIE2 kinase is incubated for 3 hr. with radioactively labelled ^33P-ATP in the presence and absence of test substances in a total volume of 100 μl at room temperature together with biotinylated poly(Glu, Tyr)4:1. The reaction is terminated using 25 μl of a 200 mM EDTA solution. After incubation for a further 30 min at room temperature, the supernatants are removed by suction, and the wells are washed three times with 100 μl of 0.9% NaCl solution each time. The radioactivity is measured using a Topcount scintillation counter (PerkinElmer, USA). IC50 values are calculated using the RS1 computer program.

PDGFRβ = PDGFRβ (Homo sapiens, UniProt P09619); assay: Inhibition of PDGFRβ (flashplate assay); type: biochemical; details: flashplate method
Experimental: as §1, with “are 96-well” for “are 384-well”, “The PDGFRβ” for “The TIE2”, “temperature (here autophosphorylation of the kinase).” for “temperature together with biotinylated poly(Glu, Tyr)4:1.”, “using 150” for “using 25”, “a 60” for “a 200”, “with 200” for “with 100”

VEGF-2 = VEGF-2 (Homo sapiens, UniProt P35968); assay: Inhibition of VEGF-2 (flashplate assay); type: biochemical; details: flashplate method
Chain of VEGF-2 (P35968 20-1356): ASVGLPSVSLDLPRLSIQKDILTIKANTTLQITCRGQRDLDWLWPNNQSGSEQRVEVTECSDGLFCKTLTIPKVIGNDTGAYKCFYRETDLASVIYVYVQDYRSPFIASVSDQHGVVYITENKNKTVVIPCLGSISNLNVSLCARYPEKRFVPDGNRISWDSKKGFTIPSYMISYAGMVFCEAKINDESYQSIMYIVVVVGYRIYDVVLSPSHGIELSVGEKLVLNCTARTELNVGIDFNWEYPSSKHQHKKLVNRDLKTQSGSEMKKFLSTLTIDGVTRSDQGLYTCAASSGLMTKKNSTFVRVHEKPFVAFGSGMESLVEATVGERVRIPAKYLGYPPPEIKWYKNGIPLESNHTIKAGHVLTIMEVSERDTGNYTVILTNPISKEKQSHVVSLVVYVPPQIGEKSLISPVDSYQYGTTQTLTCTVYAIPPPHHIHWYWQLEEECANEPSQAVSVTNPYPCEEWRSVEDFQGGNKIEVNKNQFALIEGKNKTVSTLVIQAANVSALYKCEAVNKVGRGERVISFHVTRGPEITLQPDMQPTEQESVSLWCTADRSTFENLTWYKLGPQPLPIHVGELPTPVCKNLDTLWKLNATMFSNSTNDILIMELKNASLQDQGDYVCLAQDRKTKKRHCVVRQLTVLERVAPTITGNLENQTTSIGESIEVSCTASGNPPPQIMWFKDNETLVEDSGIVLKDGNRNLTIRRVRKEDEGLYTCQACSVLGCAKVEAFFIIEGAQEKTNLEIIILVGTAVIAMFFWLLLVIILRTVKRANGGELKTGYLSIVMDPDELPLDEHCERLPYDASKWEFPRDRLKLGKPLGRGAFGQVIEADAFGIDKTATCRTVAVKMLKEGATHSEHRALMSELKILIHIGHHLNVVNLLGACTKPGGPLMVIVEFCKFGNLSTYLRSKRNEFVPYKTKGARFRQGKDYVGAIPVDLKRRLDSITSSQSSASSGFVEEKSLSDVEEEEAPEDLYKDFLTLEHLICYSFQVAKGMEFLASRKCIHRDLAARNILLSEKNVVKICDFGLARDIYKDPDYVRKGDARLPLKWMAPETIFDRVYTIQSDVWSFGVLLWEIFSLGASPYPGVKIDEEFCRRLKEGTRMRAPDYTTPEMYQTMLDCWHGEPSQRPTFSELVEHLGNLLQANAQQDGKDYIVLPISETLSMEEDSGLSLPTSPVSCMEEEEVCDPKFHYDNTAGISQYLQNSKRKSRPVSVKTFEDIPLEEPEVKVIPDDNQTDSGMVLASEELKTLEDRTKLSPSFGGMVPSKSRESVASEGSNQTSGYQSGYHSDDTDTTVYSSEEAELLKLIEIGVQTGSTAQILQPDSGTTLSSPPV
Experimental: as §1, with “VEGF-2” for “TIE2”

IGF1 receptor (IGF1R) = target: T2, IGF1 receptor (IGF1R) (Homo sapiens, UniProt P08069); assay: Inhibition of IGF1R (ELISA assay), IGF1-stimulated autophosphorylation in cells; type: cell-based; details: human tumour cells stimulated with IGF1, read-out: IC50 IGF (ELISA)
T2 construct: endogenous in cells; host or cells: MCF-7 or Calu-6
T2 sequence (P08069 31-1367): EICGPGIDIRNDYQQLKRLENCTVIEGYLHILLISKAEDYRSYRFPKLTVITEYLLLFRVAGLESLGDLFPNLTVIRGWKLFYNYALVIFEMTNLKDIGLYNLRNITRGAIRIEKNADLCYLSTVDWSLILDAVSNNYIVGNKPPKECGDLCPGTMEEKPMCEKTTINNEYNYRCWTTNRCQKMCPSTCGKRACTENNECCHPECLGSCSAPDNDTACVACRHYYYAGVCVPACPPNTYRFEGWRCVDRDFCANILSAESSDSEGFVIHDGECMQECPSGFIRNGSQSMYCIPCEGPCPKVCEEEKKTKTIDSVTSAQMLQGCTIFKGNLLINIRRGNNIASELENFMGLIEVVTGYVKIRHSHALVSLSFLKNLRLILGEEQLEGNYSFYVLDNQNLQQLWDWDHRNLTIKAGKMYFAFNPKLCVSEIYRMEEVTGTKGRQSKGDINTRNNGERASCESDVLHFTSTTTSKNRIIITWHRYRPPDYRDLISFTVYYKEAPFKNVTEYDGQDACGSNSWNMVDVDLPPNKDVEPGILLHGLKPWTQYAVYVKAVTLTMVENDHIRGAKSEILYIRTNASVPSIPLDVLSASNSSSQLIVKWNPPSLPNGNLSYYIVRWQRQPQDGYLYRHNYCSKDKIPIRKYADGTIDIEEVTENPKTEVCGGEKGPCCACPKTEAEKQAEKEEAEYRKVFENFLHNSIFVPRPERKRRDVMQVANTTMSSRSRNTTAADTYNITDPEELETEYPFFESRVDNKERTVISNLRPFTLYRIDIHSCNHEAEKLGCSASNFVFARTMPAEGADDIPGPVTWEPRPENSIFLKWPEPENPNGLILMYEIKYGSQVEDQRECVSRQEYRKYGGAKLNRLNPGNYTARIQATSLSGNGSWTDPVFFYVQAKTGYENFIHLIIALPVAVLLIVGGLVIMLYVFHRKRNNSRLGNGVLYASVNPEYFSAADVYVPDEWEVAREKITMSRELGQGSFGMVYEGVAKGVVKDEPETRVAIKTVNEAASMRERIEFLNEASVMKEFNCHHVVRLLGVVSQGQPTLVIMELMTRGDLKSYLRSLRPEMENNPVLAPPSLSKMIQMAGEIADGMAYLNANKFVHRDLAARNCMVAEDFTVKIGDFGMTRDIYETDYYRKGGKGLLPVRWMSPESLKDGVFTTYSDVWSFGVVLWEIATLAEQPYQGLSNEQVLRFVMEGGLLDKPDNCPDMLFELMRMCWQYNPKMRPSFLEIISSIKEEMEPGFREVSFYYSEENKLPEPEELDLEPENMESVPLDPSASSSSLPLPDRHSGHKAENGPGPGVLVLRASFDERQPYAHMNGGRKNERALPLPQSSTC
Experimental: The stimulation induces an autophosphorylation of tyrosine residues in the cytoplasmatic IGF1R domain, which triggers signal transduction cascades, which result in inhibition of apoptosis and proliferation of the cells.
The amount of phosphorylated IGF1R is determined by a receptor-specific capture ELISA or an analogous LUMINEX assay. The IGF1R from cell lysates is bound to a 96-well ELISA plate or LUMINEX beads by means of a specific antibody (“capturing”), and the tyrosine phosphorylation is detected using a biotin-labelled anti-phosphotyrosine antibody and a streptavidin-peroxidase conjugate by a chemiluminescence method or by means of a fluorescence-labelled anti-phosphotyrosine antibody.
For determination of the activity of kinase inhibitors, cells are pretreated with increasing concentrations of these compounds for 45 min and subsequently stimulated using IGF1 for 5 min. As internal control, the biological activity of the ligand IGF1 is checked, and a concentration series of an IGF1R reference inhibitor is measured.

IGF1R = IGF1R (Homo sapiens, UniProt P08069); assay: Inhibition of IGF1R (flashplate assay); type: biochemical; details: flashplate method
Chain of IGF1R (P08069 31-1367, species assumed): as the sequence (P08069 31-1367) above
Experimental: as §1, with “are 96-well” for “are 384-well”, “The IGF1R” for “The TIE2”, “for 1” for “for 3”

TGFβR1 = target: T3, TGFβR1 (Homo sapiens, UniProt P36897); assay: Inhibition of TGFβR1 (flashplate assay); type: biochemical; details: flashplate method
T3 sequence (P36897 34-503): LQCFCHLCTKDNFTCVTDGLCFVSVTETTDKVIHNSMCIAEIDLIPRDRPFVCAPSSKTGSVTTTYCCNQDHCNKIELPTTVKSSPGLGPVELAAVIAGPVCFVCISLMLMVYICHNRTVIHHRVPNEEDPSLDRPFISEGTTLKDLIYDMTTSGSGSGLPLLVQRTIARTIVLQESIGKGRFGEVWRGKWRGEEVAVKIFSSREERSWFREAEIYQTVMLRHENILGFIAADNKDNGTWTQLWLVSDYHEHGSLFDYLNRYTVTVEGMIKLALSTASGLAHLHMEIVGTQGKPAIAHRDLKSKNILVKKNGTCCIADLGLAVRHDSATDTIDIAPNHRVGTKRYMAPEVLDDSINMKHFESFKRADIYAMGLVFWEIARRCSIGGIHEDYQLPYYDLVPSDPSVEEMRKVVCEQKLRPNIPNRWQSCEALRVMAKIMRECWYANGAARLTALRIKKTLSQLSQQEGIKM
Experimental: The test is carried out as described in Example B1b for IGF1R. A biotinylated is added to the TGFβR1 kinase.
The kinase assay is carried out as a 384-well flashplate assay.
The components of the kinase reaction are pipetted into the assay plate. The TGFβR1 kinase is incubated for 45 min with radioactively labelled ^33P-ATP in the presence and absence of test substances together with biotinylated substrate in a total volume of 35 μl. The reaction is terminated using 25 μl of 200 mM EDTA solution, removed by suction after 30 min at room temperature, and the wells are washed with three times with 100 μl of 0.9% NaCl solution each time. The radioactivity is measured using a Topcount scintillation counter (PerkinElmer, USA). IC50 values are calculated using the RS1 computer program.

Structure (SMILES)	solubility at 24 h [1]	pIC50 [2]	pIC50 (TIE2)	pIC50 (PDGFRβ)	pIC50 (VEGF-2)	pIC50 (IGF1 receptor (IGF1R))	pIC50 (IGF1R)	pIC50 (TGFβR1)	melting point
CC(=O)NCC1CC(n2cc(-c3cccc(OCc4ccccc4)c3)c3c(N)ncnc32)C1 (stereo not drawn) [N-{3-[4-Amino-5-(3-benzyloxyphenyl)pyrrolo[2,3-d]pyrimidin-7-yl]cyclobutylmethyl}acetamide, reference compound]	5 µg/mL (≈ 11.3 µM)								
NCC1CC(n2cc(-c3ccc(N)cc3)c3c(N)ncnc32)C1 (stereo not drawn) [Compound 24]		5.48	5.82	6.20	6.20	5.04	5.64		
Nc1ncnc2c1c(-c1cccc(OCc3ccccc3)c1)cn2C1CC(CN2CCCC2)C1 (stereo not drawn) [5-(3-Benzyloxyphenyl)-7-(3-pyrrolidin-1-ylmethyl-cyclobutyl)-7H-pyrrolo[2,3-d]pyrimidin-4-ylamine, reference compound]	53 µg/mL (≈ 117 µM)								
Nc1ncnc2c1c(-c1cccc(OCc3ccccc3)c1)cn2C1CC(CNC(=O)N2CCCCC2)C1 (stereo not drawn) [Piperidine-1-carboxylic acid {3-[4-amino-5-(3-benzyloxy-phenyl)pyrrolo[2,3-d]pyrimidin-7-yl]cyclo-butylmethyl}amide, reference compound]	< 1 µg/mL								
NCC1CC(n2cc(-c3cccc(OCc4ccccc4)c3)c3c(N)ncnc32)C1 (stereo not drawn) [7-(3-Aminomethylcyclobutyl)-5-(3-benzyloxyphenyl)-7H-pyrrolo[2,3-d]pyrimidin-4-ylamine, reference compound]	233 µg/mL (≈ 583 µM)								
NCC1CC(n2cc(-c3cccc(F)c3)c3c(N)ncnc32)C1 (stereo not drawn) [Compound 6, 7-(3-aminomethylcyclobutyl)-5-(3-fluorophenyl)-7H-pyrrolo[2,3-d]pyrimidin-4-ylamine]		5.85		6.15	5.74		5.12	5.77	101 to 102 °C
Nc1ncnc2c1c(-c1cccc(OCc3ccccc3)c1)cn2C1CC(CN2C(=O)c3ccccc3C2=O)C1 (stereo not drawn) [2-{3-[4-Amino-5-(3-benzyloxyphenyl)pyrrolo[2,3-d]pyrimidin-7-yl]cyclobutylmethyl}isoindole-1,3-dione, reference compound]	< 1 µg/mL								
NCC1CC(n2cc(-c3ccccc3)c3c(N)ncnc32)C1 (stereo not drawn) [Compound 4]		5.96	5.13	6.04	5.96		5.13	5.55	84 to 86 °C
CCCCOc1cccc(-c2cn(C3CC(CN)C3)c3ncnc(N)c23)c1 (stereo not drawn) [Compound 7, 7-(3-Aminomethylcyclobutyl)-5-(3-butoxyphenyl)-7H-pyrrolo[2,3-d]pyrimidin-4-ylamine]	1120 µg/mL (≈ 3070 µM)		6.04		5.04		5.92		
NCC1CC(n2cc(-c3ccc4c(ccn4Cc4ccccc4)c3)c3c(N)ncnc32)C1 (stereo not drawn) [Compound 56]			6.31		7.21	5.39	5.85	5.30	
CS(=O)(=O)c1cccc(-c2cn(C3CC(CN)C3)c3ncnc(N)c23)c1 (stereo not drawn) [Compound 11, 7-(3-Aminomethylcyclobutyl)-5-(3-methanesulfonyl-phenyl)-7H-pyrrolo[2,3-d]pyrimidin-4-ylamine]	> 1000 µg/mL	4.55				5.00			
NCC1CC(n2cc(-c3ccc(N)cc3)c3c(N)ncnc32)C1 (stereo not drawn) [Compound 5]	1090 µg/mL (≈ 3530 µM)			6.20	6.20		5.64	5.54	319.5 to 321 °C (dec.)
